Reference: patent publication US10787450B2 (BRISTOL-MYERS SQUIBB COMPANY, priority 2016, dated 2020)
Where two headings read alike, the source gives them in different places. One block for each compound: values may come before it.

Columns and labels:
ROCK2 = ROCK2 (Homo sapiens (Human), UniProt O75116); test: ROCK2 kinase inhibition assay (FITC peptide substrate, LABCHIP 3000 Reader); type: biochemical; settings: 5 μM ATP, 1.5 μM peptide substrate
Method in brief: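 Reaction in 20 mM HEPES pH 7.5, 20 mM MgCl2, 0.015% Brij-35, 4 mM DTT with 5 μM ATP and 1.5 μM FITC-AHA-AKRRRLSSLRA-OH peptide, started with Rho kinase, DMSO <2%. EDTA-stopped; phospho and non-phospho peptide separated by mobility shift. IC50 from dose-response curve fit.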

[1] = test system: congestive heart failure in Dahl salt-sensitive rats; settings: rat, in vivo; cited from earlier work
[2] = test system: spontaneously hypertensive rat, renal hypertensive rat and deoxycortisone acetate salt hypertensive rat models; settings: cited from earlier work
neointimal formation = settings: rats; cited from earlier work
[3] = test system: IL-1 beta-induced coronary stenosis; settings: long term treatment; cited from earlier work
rat stroke model = settings: in vivo; cited from earlier work

Chain of ROCK2 (O75116 whole entry, species assumed): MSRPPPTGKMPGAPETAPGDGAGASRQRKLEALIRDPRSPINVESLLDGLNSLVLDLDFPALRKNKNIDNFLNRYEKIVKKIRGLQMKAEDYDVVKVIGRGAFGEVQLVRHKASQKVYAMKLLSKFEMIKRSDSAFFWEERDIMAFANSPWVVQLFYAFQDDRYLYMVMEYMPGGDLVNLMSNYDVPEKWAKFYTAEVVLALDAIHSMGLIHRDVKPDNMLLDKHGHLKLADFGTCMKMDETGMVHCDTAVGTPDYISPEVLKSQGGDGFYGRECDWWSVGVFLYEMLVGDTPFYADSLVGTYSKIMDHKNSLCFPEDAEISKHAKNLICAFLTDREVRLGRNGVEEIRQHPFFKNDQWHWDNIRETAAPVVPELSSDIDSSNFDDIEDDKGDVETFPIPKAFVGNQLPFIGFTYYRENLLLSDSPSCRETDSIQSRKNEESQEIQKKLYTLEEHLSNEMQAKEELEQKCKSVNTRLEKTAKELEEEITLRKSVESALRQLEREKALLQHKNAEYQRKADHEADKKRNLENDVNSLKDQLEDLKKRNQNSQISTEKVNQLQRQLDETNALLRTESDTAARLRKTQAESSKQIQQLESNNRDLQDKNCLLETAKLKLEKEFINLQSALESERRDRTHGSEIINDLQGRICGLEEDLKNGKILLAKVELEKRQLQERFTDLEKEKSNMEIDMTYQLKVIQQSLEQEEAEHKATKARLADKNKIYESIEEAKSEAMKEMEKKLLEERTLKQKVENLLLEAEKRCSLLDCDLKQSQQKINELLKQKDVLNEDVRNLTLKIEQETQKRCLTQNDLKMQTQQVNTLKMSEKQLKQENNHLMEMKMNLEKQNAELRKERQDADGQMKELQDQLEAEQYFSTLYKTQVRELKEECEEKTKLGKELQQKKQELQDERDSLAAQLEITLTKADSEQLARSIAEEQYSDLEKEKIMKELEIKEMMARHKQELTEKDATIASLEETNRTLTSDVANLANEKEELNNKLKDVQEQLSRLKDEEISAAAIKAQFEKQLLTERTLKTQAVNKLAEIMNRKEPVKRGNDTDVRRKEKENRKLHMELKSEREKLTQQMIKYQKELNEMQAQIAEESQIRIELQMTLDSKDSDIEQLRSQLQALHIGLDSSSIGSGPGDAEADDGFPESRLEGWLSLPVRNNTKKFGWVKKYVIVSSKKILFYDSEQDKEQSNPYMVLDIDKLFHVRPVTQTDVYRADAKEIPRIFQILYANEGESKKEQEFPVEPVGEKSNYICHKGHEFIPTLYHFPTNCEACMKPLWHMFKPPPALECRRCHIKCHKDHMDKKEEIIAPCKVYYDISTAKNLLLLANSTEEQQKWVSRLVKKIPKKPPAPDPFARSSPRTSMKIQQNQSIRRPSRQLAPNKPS

IC50 (ROCK2): 250 to 3000 nM
Structure (SMILES): COc1ccc(CCC(=O)N2CCC3(CC2)CN(c2ccc(-c4cn[nH]c4)cn2)C(=O)C3Nc2cccc(OC)c2)cc1 (stereo not drawn) [Example 255, -(5-(1H-pyrazol-4-yl)pyridin-2-yl)-4-((3-methoxy-phenyl)amino)-8-(3-(4-methoxy-phenyl)propanoyl)-2,8-diazaspiro [4.5]decan-3-one]

IC50 (ROCK2): 30 to 250 nM
Structure (SMILES): COc1cccc(NC2C(=O)N(c3ccc(-c4cn[nH]c4)cn3)CC23CCN(C(=O)CCn2cc(C)c4ccccc42)CC3)c1 (stereo not drawn) [Example 256, 2-(5-(1H-pyrazol-4-yl)pyridin-2-yl)-4-((3-methoxy-phenyl)amino)-8-(3-(3-methyl-1H-indol-1-yl)propanoyl)-2,8-diazaspiro [4.5]decan-3-one]

IC50 (ROCK2): 250 to 3000 nM
Structure (SMILES): COc1cccc(NC2C(=O)N(c3ccc(-c4cn[nH]c4)cn3)CC23CCN(C(=O)Cc2csc(C)n2)CC3)c1 (stereo not drawn) [Example 257, 2-(5-(1H-pyrazol-4-yl)pyridin-2-yl)-4-((3-methoxy-phenyl)amino)-8-(2-(2-methyl-thiazol-4-yl)acetyl)-2,8-diazaspiro [4.5]decan-3-one]

IC50 (ROCK2): 30 to 250 nM
Structure (SMILES): COc1cccc(NC2C(=O)N(c3ccc(-c4cn[nH]c4)cn3)CC23CCN(C(=O)CCc2nnc(-c4ccccc4)o2)CC3)c1 (stereo not drawn) [Example 258, 2-(5-(1H-pyrazol-4-yl)pyridin-2-yl)-4-((3-methoxy-phenyl)amino)-8-(3-(5-phenyl-1,3,4-oxadiazol-2-yl)pro-panoyl)-2,8-diazaspiro [4.5]decan-3-one]

IC50 (ROCK2): 250 to 3000 nM
Structure (SMILES): COc1cccc(NC2C(=O)N(c3ccc(-c4cn[nH]c4)cn3)CC23CCN(C(=O)CCN2CCCC2=O)CC3)c1 (stereo not drawn) [Example 259, 2-(5-(1H-pyrazol-4-yl)pyridin-2-yl)-4-((3-methoxy-phenyl)amino)-8-(3-(2-oxo-pyrrolidin-1-yl)pro-panoyl)-2,8-diazaspiro [4.5]decan-3-one]

Structure (SMILES): C[C@@H](N)[C@H]1CC[C@H](C(=O)Nc2ccncc2)CC1 [Example Y-27632, Y-27632]
ventricular hypertrophy, fibrosis and function [1]: improve ventricular hypertrophy, fibrosis and function
effect on blood pressure ([2]; control rats): only a minor effect on blood pressure
effect on blood pressure ([2]; three rat models of hypertension): significantly decrease blood pressure
neointimal formation (neointimal formation): inhibited neointimal formation

Structure (SMILES): O=S(=O)(c1cccc2cnccc12)N1CCCNCC1 [fasudil]
coronary constrictive remodeling [3]: promote a regression of coronary constrictive remodeling
coronary stenosis [3]: progressively reduce coronary stenosis
infarct size and neurologic deficit (rat stroke model): reduce both the infarct size and neurologic deficit
